Where two headings read alike, the source gives them in different places.
Experiments:
[1] = target: Human recombinant PRMT5 in complex with human recombinant MEP50 (Homo sapiens (Human), UniProt O14744); experiment: PRMT5/MEP50 AlphaLISA enzyme inhibitory assay; format: biochemical; settings: PRMT5/MEP50 25 nM, SAM 10 μM, Biotin-H4 peptide 30 nM
How it was run: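 Insect-cell-expressed PRMT5/MEP50 (25 nM) preincubated with SAM (10 μM), then 15 min with compound in pH 8.5 Tris buffer, 1% DMSO. Biotin-H4(1–21) peptide (30 nM) reaction ran 120 min at room temperature. H4R3 methylation detected by AlphaLISA; IC50 from four-parameter sigmoidal fit.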

Z-138 tumor cells = experiment: Mantle cell lymphoma (MCL) Z-138 xenograft efficacy study; format: in vivo, CB-17 female SCID mice; settings: administered orally BID for 21 days
Method: For the in vivo efficacy studies, CB-17 female SCID mice (19-21 g; 10-12 weeks) were purchased from Shanghai SLAC laboratory animal CO. LTD. Each mouse was inoculated subcutaneously at the right flank with Z-138 tumor cells (5×10^6 cells/mouse, 50% Matrigel) in 0.2 mL of a mixture of base media and Matrigel (RPMI:Matrigel, 1:1) for tumor development. The treatments were started when the mean tumor size reached 121.55 mm^3, which was 11 days after inoculation. Mice were assigned into groups using a randomized block design. Testing compounds or vehicle (5% DMSO+45% PEG400+50% H2O) was administered orally BID for 21 days. Body weights were measured three times per week for the whole duration of the study. Tumor size was measured at the same schedule in two dimensions using a caliper, and the volume was expressed in cubic millimeters. Animals were euthanized 6 h after the final dose on day 21, at which time tumors were collected for analysis.

A-549 = experiment: Lung cancer panel proliferation inhibition, A-549; format: cell-based; settings: Homo sapiens
Method: Inhibitory ability of compounds synthesized on the proliferation of three panels of cancer cell lines, including 5 breast cancer, 6 liver cancer, and 3 lung cancer cell lines were evaluated. Exponentially growing cells were seeded in the media of choice at various cell densities in 384-well plates with 20 ul per well and incubated overnight at 37° C., 5% CO2 incubator. Compounds were prepared as 10-point, 3-fold serial dilutions in DMSO, beginning at 6 mM. 1 μl of DMSO solutions from the compound stock plates were added to 99 ul of cell media (final top concentration of compound in the assay was 30 uM and the final concentration of DMSO was 0.5%). 20 μL of compound solutions in media were added to each well of plates with cells seeded. After adding compound solutions, assay plates were incubated for 8 and 12 days, respectively, at 37° C., 5% CO2. During this incubation period, cell media was changed every 4 days. After removing old media from cell plates, 40 ul of media with testing compounds dissolved, which were prepared by adding 1 ul of compound DMSO serial solutions to 199 ul of cell media, were added to the assay plates with the same layout as they were initially prepared. After 8 or 12 days, cell viability was measured using the CellTiter-Glo assay kit from Promega (Madison, Wis., USA) by quantitating the ATP present in the cell cultures. 20 μL of CellTiter-Glo reagent was added to each well of the cell plates. Luminescence was read after 10 minute of incubation with the Envision multiple plate reader from PerkinElmer (Waltham, Mass., USA). The concentrations of compounds inhibiting cell viability by 50% (IC50 values) were determined using a sigmoidal dose-response model (variable slopes, four parameters) in Prism 7 (La Jolla, Calif., USA).

[2] = A549, 192 h, A-549, 8 days, read-out: IC50 (μM) 8 days
[3] = A549, 288 h, A-549, 12 days, read-out: IC50 (μM) 12 days

Human recombinant PRMT5 in complex with human recombinant MEP50, sequence (O14744 whole entry): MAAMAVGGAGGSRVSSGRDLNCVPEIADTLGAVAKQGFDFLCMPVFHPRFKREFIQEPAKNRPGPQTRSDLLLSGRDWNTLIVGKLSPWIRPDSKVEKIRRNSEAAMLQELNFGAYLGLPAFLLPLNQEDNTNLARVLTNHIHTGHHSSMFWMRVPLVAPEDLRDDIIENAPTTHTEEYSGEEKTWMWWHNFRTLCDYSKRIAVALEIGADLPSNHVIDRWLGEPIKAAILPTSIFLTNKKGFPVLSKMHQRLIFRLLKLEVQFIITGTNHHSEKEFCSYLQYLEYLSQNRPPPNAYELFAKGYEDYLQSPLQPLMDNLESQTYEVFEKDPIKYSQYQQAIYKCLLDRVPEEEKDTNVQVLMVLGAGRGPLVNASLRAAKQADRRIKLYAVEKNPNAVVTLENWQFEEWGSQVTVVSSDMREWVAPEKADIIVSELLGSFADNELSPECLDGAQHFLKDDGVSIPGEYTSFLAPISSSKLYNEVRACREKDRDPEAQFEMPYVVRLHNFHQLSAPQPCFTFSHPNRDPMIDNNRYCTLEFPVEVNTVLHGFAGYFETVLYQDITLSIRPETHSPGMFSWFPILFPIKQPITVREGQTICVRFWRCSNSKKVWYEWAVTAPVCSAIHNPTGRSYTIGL
Human recombinant PRMT5 in complex with human recombinant MEP50, sequence (Q9BQA1 whole entry partner): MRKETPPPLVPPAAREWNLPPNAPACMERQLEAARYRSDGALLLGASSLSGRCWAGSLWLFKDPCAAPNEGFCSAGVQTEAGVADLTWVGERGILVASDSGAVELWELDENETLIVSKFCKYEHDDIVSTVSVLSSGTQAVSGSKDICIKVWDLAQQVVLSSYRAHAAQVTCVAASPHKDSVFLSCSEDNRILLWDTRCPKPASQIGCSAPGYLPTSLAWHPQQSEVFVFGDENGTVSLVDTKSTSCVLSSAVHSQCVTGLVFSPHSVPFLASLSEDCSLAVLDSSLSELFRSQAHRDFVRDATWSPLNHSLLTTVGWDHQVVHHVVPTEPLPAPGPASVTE

Row | Structure (SMILES) | IC50 [1] | result in Z-138 xenograft efficacy studies (tumor volume change, FIG. 1) (Z-138 tumor cells) | IC50 (A-549; [2]) | IC50 (A-549; [3])
1 | CC(=O)N1CCC(Nc2ccc3c(c2)C(=O)N(C[C@H](O)CN2CCc4ccccc4C2)CCO3)CC1 [Compound 52a, (R)-7-((1-acetylpiperidin-4-yl)amino)-4-(3-(3,4-dihydroisoquinolin-2(1H)-yl)-2-hydroxypropyl)-3,4-dihydrobenzo[f][1,4]oxazepin-5(2H)-one] | 80 nM | promising result | 0.13 µM | 0.028 µM
2 | CC(=O)N1CCC(Nc2cc(C(=O)NC[C@H](O)CN3CCc4ccccc4C3)ncn2)CC1 [Compound C3, reference compound] |  |  | 0.096 µM | 0.066 µM
3 | CC(=O)N1CCC(Nc2ccc3c(c2)C(=O)N(C[C@H](O)CN2CCc4ccccc4C2)CC3)CC1 [Compound 24a, (R)-7-((1-acetylpiperidin-4-yl)amino)-2-(3-(3,4-dihydroisoquinolin-2(1H)-yl)-2-hydroxypropyl)-3,4-dihydroisoquinolin-1(2H)-one] | 13 nM |  | 0.064 µM | 0.037 µM

— patent publication US11591326B2, “Inhibitors of protein arginine methyltransferase 5 (PRMT5), pharmaceutical products thereof, and methods thereof” (PHARMABLOCK SCIENCES (NANJING), INC., priority 2018, dated 2023)
